Test results: ChEMBL document CHEMBL4610043, “Design, synthesis and identification of novel, orally bioavailable non-covalent Nrf2 activators” (Bioorg Med Chem Lett, 2020)
In brackets after ≈: the same amount, converted by molar mass.

Assays:
[1] = Aqueous solubility of compound at pH 6.8 by shake flask method; format: physicochemical; conditions: buffer
[2] = Protein binding in rat plasma assessed as unbound fraction at 2 uM by rapid equilibrium dialysis method; format: ADME, cell-free
[3] = Protein binding in mouse brain assessed as unbound fraction; format: ADME, tissue-based
[4] = Unbound brain to plasma concentration ratio in mouse; format: ADME; conditions: brain and plasma, read-out: K(p,uu,brain)
[5] = Protein binding in human plasma assessed as unbound fraction at 2 uM by rapid equilibrium dialysis method; format: ADME, cell-free
[6] = Cmax in rat at 5 mg/kg, po; format: ADME, organism-based; design: dose 5 mg/kg, route oral; conditions: in vivo
[7] = Distribution coefficient, log D of compound at pH 7.4 by shake flask method; format: physicochemical; conditions: octanol/water
[8] = AUC in rat at 5 mg/kg, po; format: ADME, organism-based; conditions: in vivo
[9] = AUC in rat at 1 mg/kg, iv; format: ADME, organism-based; conditions: in vivo
[10] = Oral bioavailability in rat at 5 mg/kg; format: ADME, organism-based; conditions: in vivo
[11] = fCmax In C57BL/6 mouse at 10 mg/kg, po; format: ADME, organism-based; conditions: in vivo
[12] = Clearance in rat at 1 mg/kg, iv; format: ADME, organism-based; conditions: in vivo
[13] = Half life in rat at 1 mg/kg, iv; format: ADME, organism-based; conditions: in vivo
[14] = Protein binding in mouse plasma assessed as unbound fraction at 2 uM by rapid equilibrium dialysis method; format: ADME, cell-free
[15] = Tmax in rat at 5 mg/kg, po; format: ADME, organism-based; conditions: in vivo
[16] = Volume of distribution at steady state in rat at 1 mg/kg, iv; format: ADME, organism-based; conditions: in vivo, read-out: Vdss
[17] = Cmax in C57BL/6 mouse at 10 mg/kg, po; format: ADME, organism-based; design: dose 10 mg/kg, route oral; conditions: in vivo
[18] = Efflux ratio of apparent permeability in MDCK-MDR1 cells; format: ADME, cell-based, Canis lupus familiaris; conditions: dog

solubility thermodynamic [1]	fraction unbound at 2 µM [2]	fraction unbound [3]	Kp uu [4]	fraction unbound at 2 µM [5]	Cmax [6]	logD [7]	AUC [8]	AUC [9]	bioavailability [10]	fCmax [11]	clearance [12]	half-life [13]	fraction unbound at 2 µM [14]	Tmax [15]	Vd [16]	Cmax [17]	efflux ratio [18]	SMILES
29.5 µg/mL (≈ 56.2 µM)	0.00568	0.0211	0.04	0.00708	958 ng/mL	1.39	2720 ng·h/mL	2510 ng·h/mL	20%	33 nM	6.16 mL/min/kg	3.77 h	0.00505	0.92 h	0.707 L/kg	6.7 µM		CCn1nnc2c(C)c([C@@H](CC(=O)O)c3ccc4c(c3)CN(C(=O)c3c(C)c(C)cc(C)c3C)CC4)ccc21
																	104	CCn1nnc2c(C)c([C@H](c3ccc4c(c3)CN(C(=O)c3c(C)c(C)cc(C)c3C)CC4)C(C)(C)C(=O)O)ccc21
